SMILES strings stand for the structures. Like-named read-outs stand apart in the source and are kept apart here.

The subject of series [1] is PDE4B. The experiment in a line: in vitro PDE4B inhibition assay. Format: biochemical. Particulars: ratio of IC50 values.
Series [2] concerns PDE4B. Particulars: reported in previous publication; read-out: IC50 for PDE4B inhibition; cited from earlier work.
A short description of series [3]: Pharmacokinetic study after IP administration. The format is in vivo, female BALB/c mice. Particulars: for half-life: ip. Here is the method: Pharmacokinetics of GRMS-55 was evaluated in female BALB/c mice following intraperitoneal (IP) administration of this compound at doses of 50 and 100 mg·kg^−1. The investigated compound was dissolved in a vehicle composed of DMSO, PEG 400, and water for injection at a ratio of 25:25:50 (v/v/v). Animals were exsanguinated at 5, 15, 30, 60, 90, and 120 min following GRMS-55 administration. Blood samples were collected, allowed to clot for 30 min at room temperature, and centrifuged at 3000× g for 10 min. The serum was separated and stored at −20 °C until analysis.
To analyze GRMS-55 concentrations in the mouse serum, we used the previously developed HPLC method with UV detection. A detailed description of this method was published in a supplementary material of our previous publication. Briefly, 10 μL of 4-(8-((furan-2-ylmethyl)amino)-1,3-dimethyl-2,6-dioxo-1,2,3,6-tetrahydro-7H-purin-7-yl)-N′-(2-hydroxybenzylidene)butanehydrazide solution as internal standard (IS) was added to tubes containing 100 μL of the analyzed serum. The samples were mixed with 20 μL of 1 M hydrochloric acid solution, subjected to extraction with 1 mL of dichloromethane, and centrifuged at 10,000× g for 8 min. The organic layers were transferred to new tubes and evaporated with nitrogen at 37 °C. Dry residues were then dissolved in 100 μL of mobile phase and transferred to glass vial inserts for HPLC analysis (LaChrom Elite, Merck-Hitachi, Darmstadt, Germany). The separation was achieved on a LiChrospher 100 RP-18 (250 × 4 mm) column (particle size of 5 μm) protected with a LiChroCART guard column (Merck, Darmstadt, Germany) using the mobile phase composed of 20 mM solution of KH2PO4 (pH = 4.5) and acetonitrile at a ratio of 45:55 (v/v) pumped at a flow rate of 1 mL min^−1 at ambient temperature. The analytical wavelength was set to 209 nm. In these conditions, the retention time of GRMS-55 was 9.2 min and for IS it was 5.3 min. The analytical method was validated according to FDA Bioanalytical Method Validation, Guidance for Industry. Specificity of the method was estimated by analyzing six different independent samples of the blank serum. […] The calibration curve was constructed by plotting the ratios of the peak area of the studied compound to IS vs. concentrations of GRMS-55 and it was linear in the tested concentration range, i.e., 0.050–20 mg·L^−1. Within runs and between runs, precision and accuracy met the acceptance criteria, i.e., they were less than 15% expressed as coefficients of variation % (CVs%) or ±15% of the nominal concentrations, respectively, for all quality control levels. Recoveries of the analyzed compound and IS assessed by comparing the peak areas of extracted samples with corresponding extracts of blanks spiked with the analyte post-extraction ranged from 94% to 98%. The lower limit of quantification was 0.05 mg·L^−1. GRMS-55 in serum samples was stable at room temperature for at least 12 h and at –20 °C for a period of 12 months. The stock solutions were stable for over one month at 4 °C.
Initially, non-compartmental analysis of the concentration–time data of GRMS-55 was performed. Subsequently, pharmacokinetic modeling was conducted. Different compartmental models with linear and non-linear elimination were tested, and the final pharmacokinetic model with the best goodness-of-fit criteria was chosen. Several measures of goodness-of-fit were evaluated, i.e., value of the objective function, Akaike Information Criterion, Bayesian Information Criterion, visual inspection of fitting, and a precision of parameter estimates expressed as CVs%. Pharmacokinetic model parameters were estimated using the ADAPT 5 software (BMSR, Los Angeles, CA, USA) based on the weighted least squares algorithm. […]

The nature of series [4]: Stability in serum samples and stock solutions (bioanalytical validation). Format: physicochemical, mouse. Here is the method:
To analyze GRMS-55 concentrations in the mouse serum, we used the previously developed HPLC method with UV detection. A detailed description of this method was published in a supplementary material of our previous publication. Briefly, 10 μL of 4-(8-((furan-2-ylmethyl)amino)-1,3-dimethyl-2,6-dioxo-1,2,3,6-tetrahydro-7H-purin-7-yl)-N′-(2-hydroxybenzylidene)butanehydrazide solution as internal standard (IS) was added to tubes containing 100 μL of the analyzed serum. The samples were mixed with 20 μL of 1 M hydrochloric acid solution, subjected to extraction with 1 mL of dichloromethane, and centrifuged at 10,000× g for 8 min. The organic layers were transferred to new tubes and evaporated with nitrogen at 37 °C. Dry residues were then dissolved in 100 μL of mobile phase and transferred to glass vial inserts for HPLC analysis (LaChrom Elite, Merck-Hitachi, Darmstadt, Germany). […] Within runs and between runs, precision and accuracy met the acceptance criteria, i.e., they were less than 15% expressed as coefficients of variation % (CVs%) or ±15% of the nominal concentrations, respectively, for all quality control levels. Recoveries of the analyzed compound and IS assessed by comparing the peak areas of extracted samples with corresponding extracts of blanks spiked with the analyte post-extraction ranged from 94% to 98%. The lower limit of quantification was 0.05 mg·L^−1. […]

The IC50 is the concentration that gives 50% inhibition. For the compound `Cn1c(=O)c2c(nc(NCCc3ccccc3)n2CCCC(=O)NN=Cc2ccccc2O)n(C)c1=O` [GRMS-55, 4-(1,3-dimethyl-2,6-dioxo-8-(phenethylamino)-1,2,3,6-tetrahydro-7H-purin-7-yl)-N′-(2-hydroxybenzylidene)butanehydrazide], the “times weaker inhibitor of PDE4B than rolipram” value in series [1] amounted to 24.5. In addition, the IC50 in series [2] is 26.9 µM. The “ka, absorption rate constant” value in series [3] (IP 50 or 100 mg/kg, one-compartment model) was found to be 1.49 h⁻¹. Besides, the half-life in series [3] (female, BALB/c, mouse, serum, mice, IP, read-out: terminal half-life) is around 30 min; in series [3] (female, BALB/c, mouse, serum, non-compartmental approach, IP, read-out: serum terminal half-life (converted)), around 30 min; in series [3] (female, BALB/c, mouse, serum, read-out: absorption half-life (ln2/ka)), 27.9 min; in series [3] (female, BALB/c, mouse, serum, read-out: elimination half-life (ln2/ke)), 9.1 min. Also, in series [3] (female, BALB/c, mouse, serum, IP 50 or 100 mg/kg, one-compartment model, read-out: Vd/F, apparent volume of distribution), the Vd/F is 1.81 L/kg. The k el in series [3] (female, BALB/c, mouse, serum, IP 50 or 100 mg/kg, one-compartment model, read-out: ke, elimination rate constant (converted)) was 0.00127 s⁻¹. The “stability in serum samples, time stable” value in series [4] (room temperature) is recorded as “at least 12 h”; in series [4] (–20 °C) it was 12 months.

The record behind these values is article PMC8143339, “PK/PD Modeling of the PDE7 Inhibitor—GRMS-55 in a Mouse Model of Autoimmune Hepatitis” (Pharmaceutics, 2021).
